{
  "source": "patent US8609695B2",
  "about": "“Methods of treating and/or suppressing insulin resistance” (Endorecherche, Inc., priority 1999, dated 2013)",
  "key": {"aged Sprague-Dawley rats": {"system": "aged Sprague-Dawley rats", "details": "reduced from 600, without affecting food intake; cited from earlier work"}, "ovariectomized rats": {"system": "ovariectomized rats", "experiment": "20-day treatment with EM-652.HCl, body fat, body weight and energy balance (Example 3)", "format": "in vivo, rat", "details": "20 days", "description": "Eight to ten week-old female Sprague-Dawley rats (Crl:CD(SD)Br) (Charles River Laboratory, St-Constant, Canada) weighing approximately 200-225 g at the start of treatment were used. The animals were acclimatized to the environmental conditions (temperature: 22±3° C.; 10-h light-14-h dark cycles, lights on at 06:00 h) for 1 week before starting the experiment. The animals were housed individually in stainless steel cages of conventional design and were allowed free access to tap water and a high carbohydrate mixed diet composed of (g/100 g): Corn starch, 31.2; Dextrose, 31.2; Casein, 20.0; corn oil, 6.4; dl-Methionine, 0.3; Vitamine mix, 1.0; AIN-76 mineral mix, 4.9 and fiber, 5.0. The experiment was conducted in a Canadian Council on Animal Care approved facility in accordance with the CCAC Guide for Care and Use of Experimental Animals.\nOn day 1 of the study, the animals of the appropriate groups were bilaterally ovariectomized (OVX) under isoflurane anesthesia. […] The treatment with EM-652.HCl or vehicle alone (0.4% methylcellulose in water) was initiated on day 2 of the study. The compound or vehicle was given once daily by oral gavage in 0.5 ml/rat for 20 days. Body weights and food consumption were recorded every 2 days.\nApproximately 24 hours after the last dosing, overnight fasted animals were anesthesized with ketamine-xylazine and blood drawn by cardiac puncture. The blood was collected as well as white and brown adipose tissues.\nBody weight, food intake, and body gains in energy, fat, and protein were determined according to Deshaies et al, Am. J. Physiol., 1997; 273, E355-E362 (1997).\nLipoprotein lipase activities were determined according to Deshaies et al, Am. J. Physiol., 1997; 273, E355-E362 (1997)."}, "[1]": {"system": "lean and obese Zucker female rats", "experiment": "Energy balance and lipid-lipoprotein metabolism in Zucker female rats (Example 8B)", "format": "in vivo, Rattus norvegicus", "details": "for Lipoprotein lipase activity White retroperitoneal / Lipoprotein lipase activity soleus / Plasma glucose / Plasma insulin / Plasma total cholesterol / Plasma triglycerides / Weight: 2.5 mg/kg orally once daily, 14 days", "description": "The objective of this study was to determine the cffect of EM-652.HCl on energy balance and lipid-lipoprotein metabolism in lean and obese Zucker female rats. For this purpose, EM-652.HCl (2.5 mg/kg) was administered orally (gavage) once daily for 14 days to intact lean and obese Zucker female rats.\nd) Diet: • During the acclimation period, rats received a commercial rodent diet (Purina, #5075) and tap water ad libitum. During study period, rats received the following diet (diet #3) composed of (g/100 g): Starch, 31.2; Dextrose, 31.2; Casein, 20.0; Corn oil, 6.4; dl-Methionine, 0.3; Vitamin mix, 1.0; AIN-76 mineral mix, 4.9; Fiber, 5.0. Rats were fasted (with access to water only) around 07 h00 the morning of their necropsy day. Randomixation:\nSixteen lean and sixteen obese intact female rats were assigned to 4 groups of 8 rats for conduct of the study outlined below.\nAdministration of the tested compound or vehicle started on Day 1 of the study. The tested compound EM-652.HCl was given as suspension in 0.4% methylcellulose by oral gavage (0.5 ml/gavage/rat) once daily for 14 days. Rats from control groups received the vehicle alone (0.5 ml/gavage/rat) for the same time period.\nDuring the acclimation period, animals were weighed two days prior to the start of dosing for randomization. Then, rats were weighed on day 1 of the study and every 2 days during the study period as well as on the day of necropsy. Body weights were recorded with a precision of 1 g.\nFollowing an approximative 6-hour fasting period, animals were necropsied (approximately 30 hours after the last dosing). They were anesthesized with ketamine-xylazine and blood drawn by cardiac punction.\nBlood lipids (Total cholesterol (CHOL) and Triglycerides (TG)) and glucose were measured on frozen plasma samples using the Boehringer Mannheim Diagnostic Hitachi 911 Analyzer (Boehringer Mannheim Diagnostic Laboratory Systems). Circulating hormones and substrates (Leptin, Insulin, corticosterone) were measured on frozen plasma samples with the following kits: • Leptin: Linco RIA kit • Insulin: Linco RIA kit Organs and Tissues Collected\nThe retroperitoneal adipose tissue and the soleus (muscle) were collected and frozen in liquid nitrogen for further determination of lipoprotein lipase (LPL) activity."}, "[2]": {"details": "OVX rats, EM-652.HCl 0.5 mg/rat oral once daily, E2 implant"}},
  "note": "Marks after values point to notes of the source that are not given here.",
  "data": [
    {"compound": "C[C@]12CC[C@H](O)CC1=CC[C@@H]1[C@@H]2CC[C@]2(C)C(=O)CC[C@@H]12", "note": "[DHEA, dehydroepiandrosterone]", "values": [
      {"measurement": "body weight", "setting": "aged Sprague-Dawley rats", "value": 550, "unit": "g"}
    ]},
    {"compound": "CC1=C(c2ccc(O)cc2)[C@H](c2ccc(OCCN3CCCCC3)cc2)Oc2cc(O)ccc21.Cl", "note": "[EM-652.HCl, (S)-(+)-7-hydroxy-3-(4′-hydroxyphenyl)-4-methyl-2-(4″-(2′″-piperidino-ethoxy)phenyl)-2H-1-benxopyran hydrochloride]", "values": [
      {"measurement": "Ovx-induced increase in energy intake", "setting": "ovariectomized rats", "value": "completely prevented"},
      {"measurement": "Ovx-induced insulin resistance (fasting hyperinsulinemia and hyperglycemia)", "setting": "ovariectomized rats; FIG. 5", "value": "prevented"},
      {"measurement": "decrease in soleus muscle lipoprotein lipase by Ovx", "setting": "ovariectomized rats; FIG. 8", "value": "prevented"},
      {"measurement": "soleus weight increase by Ovx", "setting": "ovariectomized rats; FIG. 8", "value": "prevented"},
      {"measurement": "OVX increase in mass of inguinal and retroperitoneal adipose tissues", "setting": "ovariectomized rats; FIGS. 6A and 6C", "value": "completely abolished"},
      {"measurement": "body weight gain after ovariectomy", "setting": "ovariectomized rats; OVX rats, FIG. 2A", "value": "completely reversed"},
      {"measurement": "protein gain", "setting": "ovariectomized rats; OVX rats, FIG. 2B", "value": "less accentuated"},
      {"measurement": "fat gain after ovariectomy", "setting": "ovariectomized rats; OVX rats, FIG. 2C", "value": "completely reversed"},
      {"measurement": "Cumulative food intake", "setting": "ovariectomized rats; OVX rats, FIG. 3", "value": "lower than that of intact animals"},
      {"measurement": "increase in body energy from proteins following ovariectomy", "setting": "ovariectomized rats; OVX rats, FIG. 4A", "value": "completely reversed"},
      {"measurement": "increase in body energy from fat following ovariectomy", "setting": "ovariectomized rats; OVX rats, FIG. 4B", "value": "completely reversed"},
      {"measurement": "interscapular brown adipose tissue weight, protein content and lipoprotein lipase activity", "setting": "ovariectomized rats; OVX rats, FIG. 7", "value": "completely reversed"},
      {"measurement": "Digestible energy intake", "setting": "ovariectomized rats; [2]", "value": "4479^b kJ"},
      {"measurement": "Enegery gain", "setting": "ovariectomized rats; [2]", "value": "278^b kJ"},
      {"measurement": "Apparent energy (expenditure)", "setting": "ovariectomized rats; OVX rats, calculated from energy intake and energy gain", "value": "4201^b kJ"},
      {"measurement": "Food efficiency", "setting": "ovariectomized rats; OVX rats, kJ deposited per 100 kJ ingested", "value": 5.9, "unit": "b %"},
      {"measurement": "Lipoprotein lipase activity White retroperitoneal", "setting": "[1]; lean Zucker female rats", "value": "1349 ± 246", "unit": "μU/g protein"},
      {"measurement": "Lipoprotein lipase activity soleus", "setting": "[1]; lean Zucker female rats", "value": "60.8 ± 11.1", "unit": "μU/g protein"},
      {"measurement": "Plasma glucose", "setting": "[1]; lean Zucker female rats", "value": "9.60 ± 0.41", "unit": "mmol/L"},
      {"measurement": "Plasma insulin", "setting": "[1]; lean Zucker female rats", "value": "0.063 ± 0.012", "unit": "nmol/L"},
      {"measurement": "Plasma total cholesterol", "setting": "[1]; lean Zucker female rats", "value": "1.57 ± 0.14", "unit": "mmol/L"},
      {"measurement": "Plasma triglycerides", "setting": "[1]; lean Zucker female rats", "value": "0.83 ± 0.07", "unit": "mmol/L"},
      {"measurement": "Weight", "setting": "[1]; lean Zucker female rats", "value": "154 ± 5", "unit": "g"},
      {"measurement": "reduction of plasma insulin", "setting": "[1]; lean female Zucker rats, 2.5 mg/kg/day", "value": 48, "unit": "%"},
      {"measurement": "Lipoprotein lipase activity White retroperitoneal", "setting": "[1]; obese Zucker female rats", "value": "3819 ± 485", "unit": "μU/g protein"},
      {"measurement": "Lipoprotein lipase activity soleus", "setting": "[1]; obese Zucker female rats", "value": "36.6 ± 7.1", "unit": "μU/g protein"},
      {"measurement": "Plasma glucose", "setting": "[1]; obese Zucker female rats", "value": "11.70 ± 0.47", "unit": "mmol/L"},
      {"measurement": "Plasma insulin", "setting": "[1]; obese Zucker female rats", "value": "0.515 ± 0.091", "unit": "nmol/L"},
      {"measurement": "Plasma total cholesterol", "setting": "[1]; obese Zucker female rats", "value": "3.27 ± 0.97", "unit": "mmol/L"},
      {"measurement": "Plasma triglycerides", "setting": "[1]; obese Zucker female rats", "value": "22.20 ± 4.44", "unit": "mmol/L"},
      {"measurement": "Weight", "setting": "[1]; obese Zucker female rats", "value": "291 ± 9", "unit": "g"},
      {"measurement": "effect on plasma insulin", "setting": "[1]; obese female Zucker rats, 2.5 mg/kg/day", "value": "no significant effect"}
    ]}
  ]
}
